This is an account of results in patent US11884693B2, “1,3-acetonedicarboxylate-derived amphipathic compounds and uses thereof” (INDUSTRY-UNIVERSITY COOPERATION FOUNDATION HANYANG …, priority 2022, dated 2024).

Series [1] can be described thus: Critical micelle concentration by fluorescence staining using diphenylhexatriene (DPH). Format: physicochemical. To be noted: aqueous solution. The protocol:
A method of measuring the CMC is not particularly limited, but a method widely known in the art may be used, and for example, the CMC may be measured by a fluorescent staining method using diphenylhexatriene (DPH).
(§1) To check the characteristics of ACAs synthesized according to the synthesis methods of Examples 1 to 4, critical micelle concentrations (CMCs) of the ACAs and hydrodynamic diameters (DO of the formed micelles were measured.
(§2) Specifically, the critical micelle concentration (CMC) was measured by fluorescence staining using diphenylhexatriene (DPH), and the hydrodynamic diameters (Dh) of the micelles formed by each of the preparations (1.0% by weight) were measured by means of a dynamic light scattering (DLS) experiment. The measured results are shown in Table 1 in comparison to DDM and octyl glucoside neopentyl glycol (OGNG), two existing amphipathic molecule (detergent).

Series [2] can be described thus: Micelle size by dynamic light scattering (DLS). Format: physicochemical. To be noted: micelles at 1.0% by weight. The protocol: A method of measuring the radius of the micelles is not particularly limited, but methods widely known in the related art may be used. For example, the radius of the micelles may be measured using a dynamic light scattering (DLS) experiment.
as §1, §2
In addition, the size distribution of the micelles formed by ACAs was examined by DLS. As a result, it was confirmed that the size of the micelles increased with an increasing length of the alkyl chain. This is because a compound having a cylindrical structure easy for self-assemblage is formed as more carbon is added to the hydrophobic end (FIG. 3).

A short description of series [3]: Water solubility of the detergents. Format: physicochemical.
Series [4] has as its target T1, melibiose permease of Salmonella typhimurium (MelBSt) (Salmonella typhimurium, UniProt P30878).
T1 construct: made in house; host or cells: E. coli DW2 (ΔmelB, ΔlacZY), plasmid pK95ΔΔHB/WT MelBSt/CH10
Description: MelBSt extraction and thermal solubilization, SDS-PAGE and immunoblotting. Format: biochemical. To be noted: 1.5% (w/v) detergent, 90 min incubation at 55° C. The protocol: Melibiose and other galactoside transporter MelB was produced by E. coli DW2 strain (ΔmelB and ΔlacZY) harboring pK95ΔΔHB/WT MelBSt/CH10 plasmid. The plasmid contains the gene encoding the wild-type melibiose permease of Salmonella typhimurium (MelBSt) with a 10-His tag at the C-terminus. Cell growth and membrane preparation were carried out as described in A. S. Ethayathulla, et al., Nat. Commun. 2014, 5, 3009. Protein assay was carried out with a Micro BCA kit (Thermo Scientific). The membrane samples containing MelBSt (10 mg/mL) in a solubilization buffer (20 mM sodium phosphate, pH 7.5, 200 mM NaCl, 10% glycerol and 20 mM melibiose) were mixed with each individual detergent (ACA-SCs, ACA-ACs and DDM) at 1.5% (w/v). Protein extractions were carried out at 0° C. for 90 min. The protein samples were further incubated at three different temperatures (45, 55, and 65° C.) for 90 min. After extraction and incubation, insoluble fractions were removed by ultracentrifugation at 355,590 g in a Beckman Optima™ MAX Ultracentrifuge using a TLA-100 rotor for 45 min at 4° C. […] membrane proteins without ultracentrifugation and detergent extracts after the ultracentrifugation with the same volume were loaded for analysis by SDS-15% PAGE, and immunoblotting with a HisProbe-HRP antibody (Thermo Scientific) was conducted for visualizing the MelBSt.

Series [5] has as its target T2, mouse u-opioid receptor (MOR) (Mus musculus, UniProt P42866).
T2 construct: made in house
Description: MOR long-term stability, [3H]-diprenorphine ligand binding. Format: biochemical. The following applies: 0.1 wt % detergent, 4° C., after 8 hours of incubation. The protocol:
To perform a long-term stability analysis, MOR in 0.1% LMNG was purified. […] MOR in each detergent was incubated for five days at 4° C. and its ligand binding capacity was measured at regular intervals during the incubation. The ligand binding ability of the receptor was measured by adding ˜1 nM of radioactive [^3H]-diprenorphine (DPN). The [^3H]-DPN-containing mixture was immobilized to an anti-flag resin and the resin was collected using GF/B filter paper and scintillation fluid was added into the filter paper. Receptor-bound […] was measured with a scintillation counter (Beckman).

Molecules are shown by their SMILES.

T1 sequence (P30878 whole entry): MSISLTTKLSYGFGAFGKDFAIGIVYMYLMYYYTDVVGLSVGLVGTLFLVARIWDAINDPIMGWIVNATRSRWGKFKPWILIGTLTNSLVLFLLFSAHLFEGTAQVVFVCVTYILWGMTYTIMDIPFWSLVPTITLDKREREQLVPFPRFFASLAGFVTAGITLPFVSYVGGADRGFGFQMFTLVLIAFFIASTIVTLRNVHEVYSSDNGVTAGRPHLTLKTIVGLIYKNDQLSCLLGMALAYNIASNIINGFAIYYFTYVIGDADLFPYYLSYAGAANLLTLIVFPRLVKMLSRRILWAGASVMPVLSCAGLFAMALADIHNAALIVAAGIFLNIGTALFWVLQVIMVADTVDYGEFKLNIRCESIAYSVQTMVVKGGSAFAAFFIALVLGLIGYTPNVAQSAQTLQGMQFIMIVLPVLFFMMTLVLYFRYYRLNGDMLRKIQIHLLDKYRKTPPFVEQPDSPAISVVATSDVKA
T2 sequence (P42866 whole entry): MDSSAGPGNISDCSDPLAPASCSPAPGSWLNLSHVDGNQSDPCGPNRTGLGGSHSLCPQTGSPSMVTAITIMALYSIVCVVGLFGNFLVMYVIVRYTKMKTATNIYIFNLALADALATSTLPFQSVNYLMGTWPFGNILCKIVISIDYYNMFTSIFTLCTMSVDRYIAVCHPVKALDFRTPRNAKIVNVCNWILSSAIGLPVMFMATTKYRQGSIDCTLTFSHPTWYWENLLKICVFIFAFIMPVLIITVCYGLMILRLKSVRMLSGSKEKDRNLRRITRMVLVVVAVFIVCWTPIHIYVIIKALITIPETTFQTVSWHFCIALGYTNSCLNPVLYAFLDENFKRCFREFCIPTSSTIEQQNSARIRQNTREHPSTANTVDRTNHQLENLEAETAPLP

As for `CCCCCCCCCCC(CCCCCCCCCC)(COC1OC(CO)C(O)C(O)C1O)C(CCOC1OC(CO)C(O)C(O)C1O)OC1OC(CO)C(O)C(O)C1O` (mixture of isomers) [ACA-AC10], in series [1], the “CMC” value is on record as roughly 0.019 mM and the “CMC (% by weight)” value was roughly 0.0017 % by weight. For the same compound, the “Rh (nm)” value in series [2] turned out to be 2.7 ± 0.2 nm. Moreover, the “Solubility (% by weight)” value in series [3] was greater than 10 % by weight.

As to `CCCCCCCCCCCC(CCCCCCCCCCC)(COC1OC(CO)C(O)C(O)C1O)C(CCOC1OC(CO)C(O)C(O)C1O)OC1OC(CO)C(O)C(O)C1O` (mixture of isomers) [ACA-AC11], in series [4], the MelBSt solubilization ability result is on record as “approximately 70%”. Besides, in series [1], the “CMC” value was roughly 0.014 mM and the “CMC (% by weight)” value is reported as roughly 0.0013 % by weight. Moreover, the “Rh (nm)” value in series [2] was 3.3 ± 0.2 nm. Also, the “Solubility (% by weight)” value in series [3] was roughly 10 % by weight.

As for `CCCCCCCCCCCCC(CCCCCCCCCCCC)(COC1OC(CO)C(O)C(O)C1O)C(CCOC1OC(CO)C(O)C(O)C1O)OC1OC(CO)C(O)C(O)C1O` (mixture of isomers) [ACA-AC12], in series [1], the “CMC” value was roughly 0.012 mM and the “CMC (% by weight)” value was roughly 0.0011 % by weight. In addition, the “Rh (nm)” value in series [2] is listed as 8.9 ± 0.7 nm. Also, the “Solubility (% by weight)” value in series [3] was roughly 9 % by weight.

As to `CCCCCCCCCCCC(COC1OC(CO)C(O)C(O)C1O)C(OC1OC(CO)C(O)C(O)C1O)C(CCCCCCCCCCC)COC1OC(CO)C(O)C(O)C1O` (mixture of isomers) [ACA-SC11], the MelBSt solubilization ability entry in series [4] was “approximately 60%”. In addition, in series [1], the “CMC” value is roughly 0.010 mM and the “CMC (% by weight)” value is listed as roughly 0.0009 % by weight. Besides, the “Rh (nm)” value in series [2] is 2.9 ± 0.3 nm. Besides, the “Solubility (% by weight)” value in series [3] is roughly 10 % by weight.

Consider `CCCCCCCCCCCCC(COC1OC(CO)C(O)C(O)C1O)C(OC1OC(CO)C(O)C(O)C1O)C(CCCCCCCCCCCC)COC1OC(CO)C(O)C(O)C1O` (mixture of isomers) [ACA-SC12], for which, in series [1], the “CMC” value is roughly 0.007 mM and the “CMC (% by weight)” value is roughly 0.0007 % by weight. For the same compound, in series [2], the “Rh (nm)” value is on record as 8.3 ± 0.1 nm. Also, the “Solubility (% by weight)” value in series [3] is given as roughly 10 % by weight.

Consider `CCCCCCCCCCCCCC(COC1OC(CO)C(O)C(O)C1O)C(OC1OC(CO)C(O)C(O)C1O)C(CCCCCCCCCCCCC)COC1OC(CO)C(O)C(O)C1O` (mixture of isomers) [ACA-SC13], for which, in series [1], the “CMC” value is roughly 0.005 mM and the “CMC (% by weight)” value is on record as roughly 0.0005 % by weight. Further, in series [2], the “Rh (nm)” value is 13.9 ± 1.1 nm. Moreover, the “Solubility (% by weight)” value in series [3] is given as roughly 5 % by weight.

With `CCCCCCCCCCCCO[C@@H]1O[C@H](CO)[C@@H](O[C@H]2O[C@H](CO)[C@@H](O)[C@H](O)[C@H]2O)[C@H](O)[C@H]1O` [DDM, n-dodecyl-β-D-maltopyranoside, reference compound], in series [1], the “CMC” value was determined as 0.17 mM and the “CMC (% by weight)” value was 0.0087 % by weight. The “residual activity of MOR” value in series [5] is 10%. Besides, in series [2], the “Rh (nm)” value amounted to 3.4 ± 0.3 nm. For the same compound, the “Solubility (% by weight)” value in series [3] is reported as greater than 10 % by weight.

Turning to `CCCCCCC(CCCCCC)(CO[C@@H]1O[C@H](CO)[C@@H](O)[C@H](O)[C@H]1O)CO[C@@H]1O[C@H](CO)[C@@H](O)[C@H](O)[C@H]1O` [OGNG, octyl glucoside neopentyl glycol, reference compound], in series [1], the “CMC” value is on record as roughly 1.0 mM and the “CMC (% by weight)” value was roughly 0.058 % by weight. The “Rh (nm)” value in series [2] is on record as 4.4 ± 0.3 nm. In addition, in series [3], the “Solubility (% by weight)” value is given as greater than 10 % by weight.
